The text below walks through data of article PMC12257073 (Cancer Research Communications, 2025).

Like-named read-outs stand apart in the source and are kept apart here.

The test system of data set [1] is TP53-mutated AML. The following applies: cited from earlier work.
Data set [2] can be described thus: Adverse events (treatment-related and all-cause) and dose-limiting toxicities, NCI CTCAE version 4.0. The conditions noted are these: all treated patients, TP-0903 + decitabine.
Experimental: The phase 1b portion of the study used a standard 3 + 3 dose-escalation design with a starting dose level 1 (DL1) of 37 mg oral daily TP-0903 (Supplementary Table S2) based on experience with 50 mg oral daily as a single agent in patients with solid tumors ([25]). Dose-limiting toxicities (DLT) were evaluated to establish the dose brought forward for an expansion cohort (phase 2). Seven patients were enrolled in the phase 1b study, which was completed in January 2021 with the decision to move forward with an expansion cohort of 37 mg oral daily. Across the phase 1b and phase 2 studies, 15 patients were enrolled and started on 37 mg TP-0903 oral daily on days 1 to 21 (group 1). […] One additional patient was enrolled at this time but was inadvertently started on 25 mg TP-0903 oral daily on days 1 to 21. […] In May 2021, an amendment was approved to allow enrollment of a new group 2 at 25mg oral daily on days 1 to 21 of TP-0903 (DL-1) in stage 2 of the phase 2 study.
Clinical response was assessed according to the modified 2017 European LeukemiaNet AML criteria ([26]). The primary endpoint was achievement of CR within six cycles of therapy. Secondary endpoints included toxicity, duration of response, OS, and the proportion of eligible patients who effectively transitioned to allogeneic stem cell transplantation. Exploratory endpoints included pharmacokinetics (PK), correlative genetic, and biochemical data; correlations between morphologic remission, spectral flow cytometry, and mutational remission; and duration of remission or survival. […] Adverse events (AE) were graded according to the NCI Common Terminology Criteria for Adverse Events version 4.0 ([27]).

On to magrolimab, for which the “Median OS” value in data set [1] (magrolimab and azacitidine, TP53-mutated patients) is recorded as 9.8 months.

For the compound `c1cn2cc(-c3ccc4cn[nH]c4c3)nc(Nc3ccc(N4CCOCC4)cc3)c2n1` [entospletinib], the “CR + CRi rate” value in data set [1] (entospletinib and a 10-day course of decitabine, complex karyotype AML with a TP53 mutation) is reported as 17.1%. In addition, in data set [1] (entospletinib combined with decitabine, patients with mutant TP53), the “Median OS” value is given as 6.5 months.

On to `COCC1(CO)C(=O)C2CCN1CC2` (stereo not drawn) [eprenetapopt], for which the “Median OS” value in data set [1] (eprenetapopt combined with azacitidine) was “less than 1 year”. In addition, the CR rate in data set [1] (eprenetapopt, mutant p53) is recorded as not above 17%.

`Nc1ncn([C@H]2C[C@H](O)[C@@H](CO)O2)c(=O)n1` [decitabine, reference compound]: the “Serious AEs related to decitabine” value in data set [2] is given as “only one patient had a serious AE related to decitabine (grade 3 pneumonia)”.

Regarding `CC1(C)CCC(CN2CCN(c3ccc(C(=O)NS(=O)(=O)c4ccc(NCC5CCOCC5)c([N+](=O)[O-])c4)c(Oc4cnc5[nH]ccc5c4)c3)CC2)=C(c2ccc(Cl)cc2)C1` [venetoclax], the “Median OS” value is “approximately 5.2 months” in data set [1] (venetoclax added to HMAs, no difference vs HMA alone); 5.2 months in data set [1] (venetoclax and azacitidine, TP53-mutated patients with poor-risk cytogenetics); not above 17.5 months in data set [1] (venetoclax in combination with azacitidine, older or medically unfit patients with AML). Moreover, the “CR + CRi rate” value is recorded as 55% in data set [1] (venetoclax added to HMAs) and 55% in data set [1] (venetoclax plus azacitidine, patients with mutant TP53).

Turning to `Nc1ncn([C@@H]2O[C@H](CO)[C@@H](O)[C@H]2O)c(=O)n1` [azacitidine], the “Median OS” value in data set [1] (TP53-mutated patients, azacitidine) is on record as 7.9 months.
